Assays:
[1] = molecular target: T1, CMP-sialic acid transporter (CST) (Mus musculus, UniProt Q61420); assay: X-ray crystal structure at […] Å; FSEC thermal shift binding assay with Kd (also inhibits [3H]CMP-Sia uptake in Sf9 cells, IC50 […]); set-up: gene Slc35a1; Kd: full-length, GFP-tagged mouse CST; crystal: CSTΔC construct, which lacks the last 15 residues (322–336)
T1 sequence (Q61420 1-336): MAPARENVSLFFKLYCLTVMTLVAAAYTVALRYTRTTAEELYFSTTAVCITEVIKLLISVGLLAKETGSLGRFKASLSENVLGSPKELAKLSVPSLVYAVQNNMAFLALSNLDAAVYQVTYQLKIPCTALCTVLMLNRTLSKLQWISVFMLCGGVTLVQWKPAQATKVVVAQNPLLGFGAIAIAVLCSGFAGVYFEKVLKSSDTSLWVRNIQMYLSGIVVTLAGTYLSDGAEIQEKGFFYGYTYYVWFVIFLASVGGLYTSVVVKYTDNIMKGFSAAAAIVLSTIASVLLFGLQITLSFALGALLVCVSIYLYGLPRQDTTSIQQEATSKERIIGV

[2] = molecular target: T1, CMP-sialic acid transporter (CST); assay: FSEC thermal shift binding assay with Kd (also inhibits [3H]CMP-Sia uptake in Sf9 cells, IC50 […]); set-up: gene Slc35a1; Full-length, GFP-tagged mouse CST

| SMILES | Kd [1] [µM] | Kd [2] [µM] |
| --- | --- | --- |
| Cc1cn([C@@H]2O[C@H](COP(=O)(O)O)[C@@H](O)[C@H]2O)c(=O)nc1N [m5CMP, 5-methyl CMP] | 1 |  |
| Nc1ccn([C@@H]2O[C@H](COP(=O)(O)O)[C@@H](O)[C@H]2O)c(=O)n1 [CMP] |  | 16.1 |

— article PMC8174729, “Inhibition of CMP-sialic acid transport by endogenous 5-methyl CMP” (PLoS ONE, 2021)
